Results: patent US20240158446A1, “CYCLIC COMPOUND HAVING SELECTIVE INHIBITORY ACTION ON KRAS OVER HRAS AND NRAS” (CHUGAI SEIYAKU KABUSHIKI KAISHA, priority 2021, published 2024)

Key:
[1] = molecular target: GDP-bound HRAS wild-type protein (Homo sapiens, UniProt P01112); assay: Binding to HRAS by surface plasmon resonance (SPR), Single Cycle Kinetics; settings: SPR, GDP-bound HRAS wild-type protein vs GDP-bound KRAS wild-type protein
[2] = molecular target: GDP-bound NRAS wild-type protein (Homo sapiens, UniProt P01111); assay: Binding to NRAS by surface plasmon resonance (SPR), Single Cycle Kinetics; settings: SPR, GDP-bound NRAS wild-type protein vs GDP-bound KRAS wild-type protein
[3] = molecular target: GDP-bound KRAS wild-type protein (Homo sapiens, UniProt P01116); assay: Binding to KRAS by surface plasmon resonance (SPR), Single Cycle Kinetics; settings: SPR Single Cycle Kinetics, GDP-bound KRAS wild-type protein, 1:1 binding model; read-out: KRAS KD
GDP-bound KRAS wild-type protein, sequence (P01116 whole entry): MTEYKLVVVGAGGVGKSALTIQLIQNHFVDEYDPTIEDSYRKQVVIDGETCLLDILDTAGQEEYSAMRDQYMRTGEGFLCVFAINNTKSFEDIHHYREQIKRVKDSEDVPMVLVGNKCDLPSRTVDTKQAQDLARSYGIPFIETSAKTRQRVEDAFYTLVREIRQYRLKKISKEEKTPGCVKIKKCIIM

GDP-bound NRAS wild-type protein, sequence (P01111 whole entry): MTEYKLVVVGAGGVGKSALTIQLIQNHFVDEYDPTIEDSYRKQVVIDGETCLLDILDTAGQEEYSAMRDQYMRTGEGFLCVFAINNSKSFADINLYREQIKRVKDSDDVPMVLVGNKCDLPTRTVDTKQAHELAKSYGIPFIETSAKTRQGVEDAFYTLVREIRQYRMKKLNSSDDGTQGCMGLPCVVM
GDP-bound HRAS wild-type protein, sequence (P01112 whole entry): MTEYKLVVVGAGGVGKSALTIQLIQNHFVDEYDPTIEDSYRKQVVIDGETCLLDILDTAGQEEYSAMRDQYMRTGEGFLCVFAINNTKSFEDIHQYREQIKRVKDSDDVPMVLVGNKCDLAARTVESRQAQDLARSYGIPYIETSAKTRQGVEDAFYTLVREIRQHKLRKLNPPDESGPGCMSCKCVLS

Kd [3] [pM] | Compound | HRAS/KRAS (ratio of KD value with respect to HRAS to KD value with respect to KRAS) [1] | NRAS/KRAS (ratio of KD value with respect to NRAS to KD value with respect to KRAS) [2]
490 | CC[C@H](C)[C@@H]1NC(=O)[C@H](CC(C)C)N(C)C(=O)C[C@@H](C(=O)N2CCOCC2)N(C)C(=O)[C@H](C2CCCC2)N(C)C(=O)C2(CCCC2)NC(=O)[C@@H]2CCCN2C(=O)[C@H](CCc2ccc(C(F)(F)F)c(Cl)c2)NC(=O)CN(C)C(=O)[C@H](Cc2ccc(C)cc2)N2CC/C=C\C[C@@H](C2=O)N(C)C(=O)CN(C)C1=O [PP0461] | A (a compound having 10 or more and less than 20 is denoted as A) | A (a compound having 10 or more and less than 20 is denoted as A)
320 | CC[C@H](C)[C@@H]1NC(=O)[C@H](CC(C)C)N(C)C(=O)C[C@@H](C(=O)N2CCOCC2)N(C)C(=O)[C@H](C2CCCC2)N(C)C(=O)C2(CCCC2)NC(=O)[C@@H]2CCCN2C(=O)[C@H](CCc2ccc(C(F)(F)F)c(Cl)c2)NC(=O)CN(C)C(=O)[C@H](Cc2ccc(C(F)(F)F)cc2)N2CC=CC[C@@H](C2=O)N(C)C(=O)CN(C)C1=O [PP0462] | C (A compound having a KD ratio of 0.1 or more and less than 3 is denoted as C) | C (A compound having a KD ratio of 0.1 or more and less than 3 is denoted as C)
540 | CC[C@H](C)[C@@H]1NC(=O)[C@H](CC(C)C)N(C)C(=O)C[C@@H](C(=O)N2CCOCC2)N(C)C(=O)[C@H](C2CCCC2)N(C)C(=O)C2(CCCC2)NC(=O)[C@@H]2CCCN2C(=O)[C@H](CCc2ccc(C(F)(F)F)c(Cl)c2)NC(=O)CN(C)C(=O)[C@H](Cc2ccc(C(F)(F)F)cc2)N2CC/C=C\C[C@@H](C2=O)N(C)C(=O)CN(C)C1=O [PP0463] | A (a compound having 10 or more and less than 20 is denoted as A) | A (a compound having 10 or more and less than 20 is denoted as A)
920 | CC[C@H](C)[C@@H]1NC(=O)[C@H](CC(C)C)N(C)C(=O)C[C@@H](C(=O)N2CCOCC2)N(C)C(=O)[C@H](C2CCCC2)N(C)C(=O)C2(CCC2)NC(=O)[C@@H]2CC(F)(F)CN2C(=O)[C@H](CCc2cc(F)c(C(F)(F)F)c(F)c2)NC(=O)CN(C)C(=O)[C@H](Cc2ccc(C(F)(F)F)cc2)N2CCCCC[C@@H](C2=O)N(C)C(=O)CN(C)C1=O [PP0464] | B (a compound having 3 or more and less than 10 is denoted as B) | B (a compound having 3 or more and less than 10 is denoted as B)
510 | CC[C@H](C)[C@@H]1NC(=O)[C@H](CC(C)C)N(C)C(=O)C[C@@H](C(=O)N(C)C)N(C)C(=O)[C@H](C2CCCC2)N(C)C(=O)C2(CCCC2)NC(=O)[C@@H]2CC(F)(F)CN2C(=O)[C@H](CCc2cc(F)c(C(F)(F)F)c(F)c2)NC(=O)CN(C)C(=O)[C@H](Cc2ccc(C(F)(F)F)cc2)N2CCCCC[C@@H](C2=O)N(C)C(=O)CN(C)C1=O [PP0465] | B (a compound having 3 or more and less than 10 is denoted as B) | B (a compound having 3 or more and less than 10 is denoted as B)
200 | CC[C@H](C)[C@@H]1NC(=O)[C@H](CC(C)C)N(C)C(=O)C[C@@H](C(=O)N(C)C)N(C)C(=O)[C@H](C2CCCC2)N(C)C(=O)C2(CCC2)NC(=O)[C@@H]2CC(F)(F)CN2C(=O)[C@H](CCc2cc(F)c(C(F)(F)F)c(F)c2)NC(=O)CN(C)C(=O)[C@H](Cc2ccc(C(F)(F)F)cc2)N2CCCCC[C@@H](C2=O)N(C)C(=O)CN(C)C1=O [PP0466] | B (a compound having 3 or more and less than 10 is denoted as B) | B (a compound having 3 or more and less than 10 is denoted as B)
590 | CCO[C@@H]1C[C@H]2C(=O)NC3(CCC3)C(=O)N(C)[C@@H](C3CCCC3)C(=O)N(C)[C@H](C(=O)N3CCOCC3)CC(=O)N(C)[C@@H](CC(C)C)C(=O)N[C@@H]([C@@H](C)CC)C(=O)N(C)CC(=O)N(C)[C@H]3CCCCCN(C3=O)[C@@H](Cc3ccc(C(F)(F)F)cc3)C(=O)N(C)CC(=O)N[C@@H](CCc3cc(F)c(C(F)(F)F)c(F)c3)C(=O)N2C1 [PP0467] | B (a compound having 3 or more and less than 10 is denoted as B) | B (a compound having 3 or more and less than 10 is denoted as B)
800 | CCO[C@@H]1C[C@H]2C(=O)NC3(CCCC3)C(=O)N(C)[C@@H](C3CCCC3)C(=O)N(C)[C@H](C(=O)N(C)C)CC(=O)N(C)[C@@H](CC(C)C)C(=O)N[C@@H]([C@@H](C)CC)C(=O)N(C)CC(=O)N(C)[C@H]3CCCCCN(C3=O)[C@@H](Cc3ccc(C(F)(F)F)cc3)C(=O)N(C)CC(=O)N[C@@H](CCc3cc(F)c(C(F)(F)F)c(F)c3)C(=O)N2C1 [PP0468] | B (a compound having 3 or more and less than 10 is denoted as B) | B (a compound having 3 or more and less than 10 is denoted as B)
550 | CC[C@H](C)[C@@H]1NC(=O)[C@H](C)N(C)C(=O)C[C@@H](C(=O)N(C)C)N(C)C(=O)[C@H](C2CCCC2)N(C)C(=O)C2(CCC2)NC(=O)[C@@H]2CCCN2C(=O)[C@H](CCc2cc(F)c(C(F)(F)F)c(F)c2)NC(=O)CN(C)C(=O)[C@H](Cc2ccc(C(F)(F)F)cc2)N2CCCCC[C@@H](C2=O)N(C)C(=O)CN(C)C1=O [PP0470] | B (a compound having 3 or more and less than 10 is denoted as B) | B (a compound having 3 or more and less than 10 is denoted as B)
930 | CC[C@H](C)[C@@H]1NC(=O)[C@H](C)N(C)C(=O)C[C@@H](C(=O)N2CCOCC2)N(C)C(=O)[C@H](C2CCCC2)N(C)C(=O)C2(CCC2)NC(=O)[C@@H]2CC(F)(F)CN2C(=O)[C@H](CCc2cc(F)c(C(F)(F)F)c(F)c2)NC(=O)CN(C)C(=O)[C@H](Cc2ccc(C(F)(F)F)cc2)N2CCCCC[C@@H](C2=O)N(C)C(=O)CN(C)C1=O [PP0471] | B (a compound having 3 or more and less than 10 is denoted as B) | B (a compound having 3 or more and less than 10 is denoted as B)
770 | CC[C@H](C)[C@@H]1NC(=O)[C@H](C)N(C)C(=O)C[C@@H](C(=O)N(C)C)N(C)C(=O)[C@H](C2CCCC2)N(C)C(=O)C2(CCCC2)NC(=O)[C@@H]2CC(F)(F)CN2C(=O)[C@H](CCc2cc(F)c(C(F)(F)F)c(F)c2)NC(=O)CN(C)C(=O)[C@H](Cc2ccc(C(F)(F)F)cc2)N2CCCCC[C@@H](C2=O)N(C)C(=O)CN(C)C1=O [PP0472] | B (a compound having 3 or more and less than 10 is denoted as B) | B (a compound having 3 or more and less than 10 is denoted as B)
560 | CC[C@H](C)[C@@H]1NC(=O)[C@H](C)N(C)C(=O)C[C@@H](C(=O)N(C)C)N(C)C(=O)[C@H](C2CCCC2)N(C)C(=O)C2(CCC2)NC(=O)[C@@H]2CC(F)(F)CN2C(=O)[C@H](CCc2cc(F)c(C(F)(F)F)c(F)c2)NC(=O)CN(C)C(=O)[C@H](Cc2ccc(C(F)(F)F)cc2)N2CCCCC[C@@H](C2=O)N(C)C(=O)CN(C)C1=O [PP0473] | C (A compound having a KD ratio of 0.1 or more and less than 3 is denoted as C) | C (A compound having a KD ratio of 0.1 or more and less than 3 is denoted as C)
630 | CCO[C@@H]1C[C@H]2C(=O)NC3(CCC3)C(=O)N(C)[C@@H](C3CCCC3)C(=O)N(C)[C@H](C(=O)N3CCOCC3)CC(=O)N(C)[C@@H](C)C(=O)N[C@@H]([C@@H](C)CC)C(=O)N(C)CC(=O)N(C)[C@H]3CCCCCN(C3=O)[C@@H](Cc3ccc(C(F)(F)F)cc3)C(=O)N(C)CC(=O)N[C@@H](CCc3cc(F)c(C(F)(F)F)c(F)c3)C(=O)N2C1 [PP0474] | B (a compound having 3 or more and less than 10 is denoted as B) | B (a compound having 3 or more and less than 10 is denoted as B)
460 | CCO[C@@H]1C[C@H]2C(=O)NC3(CCCC3)C(=O)N(C)[C@@H](C3CCCC3)C(=O)N(C)[C@H](C(=O)N(C)C)CC(=O)N(C)[C@@H](C)C(=O)N[C@@H]([C@@H](C)CC)C(=O)N(C)CC(=O)N(C)[C@H]3CCCCCN(C3=O)[C@@H](Cc3ccc(C(F)(F)F)cc3)C(=O)N(C)CC(=O)N[C@@H](CCc3cc(F)c(C(F)(F)F)c(F)c3)C(=O)N2C1 [PP0475] | B (a compound having 3 or more and less than 10 is denoted as B) | B (a compound having 3 or more and less than 10 is denoted as B)
200 | CCO[C@@H]1C[C@H]2C(=O)NC3(CCC3)C(=O)N(C)[C@@H](C3CCCC3)C(=O)N(C)[C@H](C(=O)N(C)C)CC(=O)N(C)[C@@H](C)C(=O)N[C@@H]([C@@H](C)CC)C(=O)N(C)CC(=O)N(C)[C@H]3CCCCCN(C3=O)[C@@H](Cc3ccc(C(F)(F)F)cc3)C(=O)N(C)CC(=O)N[C@@H](CCc3cc(F)c(C(F)(F)F)c(F)c3)C(=O)N2C1 [PP0476] | B (a compound having 3 or more and less than 10 is denoted as B) | B (a compound having 3 or more and less than 10 is denoted as B)
